Article PMC8578705 (Cell Reports, 2021)
Values joined by “and” are separate entries in the source; they are usually repeats but may differ in a detail not shown here. Equal values may be shown once.

Columns and labels:
[1] = target: T1, IBC (residues 224-604 of IP3R1) (Rattus norvegicus, UniProt P29994); test: Equilibrium-competition [3H]IP3 binding to the IBC fragment in TEM; settings: read-out: IBC, KD
T1 construct: Residues 224-604 of rat IP3R1 (IBC) in pTrcHisA plasmid; His6 (N, cleaved yes); made in house; host or cells: E. coli (bacterial lysate used in the assay)
Experimental: (§1) IP3R1, which accounts for ∼99% of IP3Rs in cerebellum ([Wojcikiewicz, 1995]), was purified from cerebella of adult Wistar rats using heparin-affinity chromatography ([Rossi et al., 2009]). The purified protein (10 μg/mL) was stored at −80°C in 500 mM NaCl, 50 mM Tris, 10% glycerol, 1 mM 2-mercaptoethanol, 1 mM benzamidine, 1 mM EGTA, 50 mM Tris, 1% CHAPS, pH 8.0. N-terminal fragments of IP3R1 (IBC, residues 224-604; NT, residues 1-604) were expressed as N-terminally tagged His6-fusion proteins in E. coli and cleaved from the tag with thrombin ([Rossi et al., 2009]). […] Bound and free ligand were separated by centrifugation (4°C, 5 min, 14,000 × g).
(§2) For equilibrium binding and concentration-effect relationships, results from each experiment were fitted to Hill equations (PRISM) from which pIC50 (-log of half-maximal inhibitory concentration) or pEC50 (-log of half-maximally effective concentration) values were determined. KDligand was calculated from: KDligand = […] . In functional assays, dose ratios (DR) were used to calculate antagonist affinities ([Arunlakshana and Schild, 1959]): KDantagonist = [antagonist]/(DR-1).

[2] = target: T2, NT (residues 1-604 of IP3R1) (Rattus norvegicus, UniProt P29994); test: Equilibrium-competition [3H]IP3 binding to the NT fragment in TEM; settings: [3H]IP3 0.75 nM, read-out: NT, KD
T2 construct: Residues 1-604 of rat IP3R1 (NT) in pTrcHisA plasmid; His6 (N, cleaved yes); made in house; host or cells: E. coli (bacterial lysate used in the assay)
Experimental: as §1, §2

[3] = target: T3, IP3R1 (cerebellar membranes) (Rattus norvegicus, UniProt P29994); test: Equilibrium-competition [3H]IP3 binding to cerebellar membranes in CLM (conditions mimicking functional assays)
T3 construct: membranes from cerebella of adult Wistar rats; from tissue; host or cells: cerebellar membranes of adult Wistar rats
Experimental: Bound and free ligand were separated by centrifugation (22°C, 5 min, 14,000 × g).
as §2

IP3R1 (DT40-IP3R1 cells) = target: T4, IP3R1 (DT40-IP3R1 cells) (Rattus norvegicus, UniProt P29994); test: Ca2+ release from permeabilized DT40-IP3R1 cells (Mag-fluo 4); assay type: cell-based
T4 construct: expressed in transfected cells; host or cells: Gallus gallus DT40 cells without native IP3Rs, stably transfected
Experimental: (§3) Incubation of cells with the acetoxymethylester (AM) of Mag-fluo 4 traps low-affinity forms of the indicator ( KdCa = 1.15 mM measured in situ) within the ER. Fluorescence, which is approximately linearly related to ER free [Ca^2+] (since [Ca^2+]ER < KdCa ), can then be used, without further calibration, to reliably report free [Ca^2+] within the ER lumen ([Rossi and Taylor, 2020]). The ER of DT40 or HEK293 cells was loaded with indicator by incubating cells with Mag-fluo 4 AM (20 μM, 60 min, 22°C) in HEPES-buffered saline (HBS: 135 mM NaCl, 5.9 mM KCl, 11.6 mM HEPES, 1.5 mM CaCl2, 11.5 mM glucose, 1.2 mM MgCl2, pH 7.3) as described ([Rossi et al., 2009]). After washing and permeabilization with saponin (10 μg/mL, 37°C, 2-3 min) in Ca^2+-free cytosol-like medium (Ca^2+-free CLM), cells were centrifuged (650 × g, 2 min) and resuspended in Mg^2+-free CLM supplemented with CaCl2 to give a final free [Ca^2+] of 220 nM after addition of 1.5 mM MgATP. Ca^2+-free CLM comprised: 20 mM NaCl, 140 mM KCl, 1 mM EGTA, 20 mM PIPES, 2 mM MgCl2, pH 7.0. Cells (4 × 10^5 cells/well) were attached to poly-L-lysine-coated 96-well black-walled plates (Greiner Bio-One, Stonehouse, UK), and fluorescence (excitation and emission at 485 nm and 520 nm, respectively) was recorded at intervals of 1.44 s using a FlexStation III plate-reader (Molecular Devices, Sunnyvale, CA, USA). MgATP (1.5 mM) was added to initiate Ca^2+ uptake, and when the ER had loaded to steady state with Ca^2+ (∼150 s), ligands were added. Responses to the ligands show ER Ca^2+ contents as either time courses or, in summary results, as the Ca^2+ content recorded 20 s after addition of the stimulus. The distribution of samples across 96-well plates was varied between experiments to avoid any systematic ‘position-related’ artifacts. HEK-G-CEPIA1er cells were permeabilized and assayed as described for Mag-fluo 4-loaded cells.
as §2

IP3R1 = target: T5, IP3R1 (Rattus norvegicus, UniProt P29994); test: Nuclear patch-clamp recording from excised nuclear patches of DT40-IP3R1 cells; assay type: biochemical, mammalian
T5 construct: expressed in transfected cells; host or cells: Gallus gallus DT40 cells without native IP3Rs, stably transfected
Experimental: The methods used for patch-clamp recording from patches excised from the outer nuclear envelope of DT40-IP3R1 cells, with K^+ as charge-carrier and using QuB ([Qin, 2004]) for analysis of currents, were as described previously ([Taufiq-Ur-Rahman et al., 2009]; [Rossi et al., 2009]). It typically took 30-45 s to establish a recording, and Po was then stable throughout recordings that typically lasted up to 8-10 mins.

[4] = test system: IP3Rs (wild-type HEK cells); test: Ca2+ release from permeabilized wild-type HEK cells; assay type: cell-based, Homo sapiens; settings: 20 s after addition
Experimental: as §3, §2

IP3R1 (HEK-IP3R1 cells) = target: T6, IP3R1 (HEK-IP3R1 cells) (Rattus norvegicus, UniProt P29994); test: Ca2+ release from permeabilized HEK-IP3R1 cells; assay type: cell-based; settings: at the concentrations used (heparin 10 mg/mL, dequalinium 50 μM, 2-APB 125 μM), permeabilized HEK-IP3R1 cells
T6 construct: expressed in transfected cells
Experimental: Fluorescence, which is approximately linearly related to ER free [Ca^2+] […] Ca^2+-free CLM comprised: 20 mM NaCl, 140 mM KCl, 1 mM EGTA, 20 mM PIPES, 2 mM MgCl2, pH 7.0. […] MgATP (1.5 mM) was added to initiate Ca^2+ uptake, and when the ER had loaded to steady state with Ca^2+ (∼150 s), ligands were added. Responses to the ligands show ER Ca^2+ contents as either time courses or, in summary results, as the Ca^2+ content recorded 20 s after addition of the stimulus. The distribution of samples across 96-well plates was varied between experiments to avoid any systematic ‘position-related’ artifacts. HEK-G-CEPIA1er cells were permeabilized and assayed as described for Mag-fluo 4-loaded cells.
For equilibrium binding and concentration-effect relationships, results from each experiment were fitted to Hill equations (PRISM) from which pIC50 (-log of half-maximal inhibitory concentration) or pEC50 (-log of half-maximally effective concentration) values were determined.

T4 sequence (P29994 1-2735 isoform P29994-2): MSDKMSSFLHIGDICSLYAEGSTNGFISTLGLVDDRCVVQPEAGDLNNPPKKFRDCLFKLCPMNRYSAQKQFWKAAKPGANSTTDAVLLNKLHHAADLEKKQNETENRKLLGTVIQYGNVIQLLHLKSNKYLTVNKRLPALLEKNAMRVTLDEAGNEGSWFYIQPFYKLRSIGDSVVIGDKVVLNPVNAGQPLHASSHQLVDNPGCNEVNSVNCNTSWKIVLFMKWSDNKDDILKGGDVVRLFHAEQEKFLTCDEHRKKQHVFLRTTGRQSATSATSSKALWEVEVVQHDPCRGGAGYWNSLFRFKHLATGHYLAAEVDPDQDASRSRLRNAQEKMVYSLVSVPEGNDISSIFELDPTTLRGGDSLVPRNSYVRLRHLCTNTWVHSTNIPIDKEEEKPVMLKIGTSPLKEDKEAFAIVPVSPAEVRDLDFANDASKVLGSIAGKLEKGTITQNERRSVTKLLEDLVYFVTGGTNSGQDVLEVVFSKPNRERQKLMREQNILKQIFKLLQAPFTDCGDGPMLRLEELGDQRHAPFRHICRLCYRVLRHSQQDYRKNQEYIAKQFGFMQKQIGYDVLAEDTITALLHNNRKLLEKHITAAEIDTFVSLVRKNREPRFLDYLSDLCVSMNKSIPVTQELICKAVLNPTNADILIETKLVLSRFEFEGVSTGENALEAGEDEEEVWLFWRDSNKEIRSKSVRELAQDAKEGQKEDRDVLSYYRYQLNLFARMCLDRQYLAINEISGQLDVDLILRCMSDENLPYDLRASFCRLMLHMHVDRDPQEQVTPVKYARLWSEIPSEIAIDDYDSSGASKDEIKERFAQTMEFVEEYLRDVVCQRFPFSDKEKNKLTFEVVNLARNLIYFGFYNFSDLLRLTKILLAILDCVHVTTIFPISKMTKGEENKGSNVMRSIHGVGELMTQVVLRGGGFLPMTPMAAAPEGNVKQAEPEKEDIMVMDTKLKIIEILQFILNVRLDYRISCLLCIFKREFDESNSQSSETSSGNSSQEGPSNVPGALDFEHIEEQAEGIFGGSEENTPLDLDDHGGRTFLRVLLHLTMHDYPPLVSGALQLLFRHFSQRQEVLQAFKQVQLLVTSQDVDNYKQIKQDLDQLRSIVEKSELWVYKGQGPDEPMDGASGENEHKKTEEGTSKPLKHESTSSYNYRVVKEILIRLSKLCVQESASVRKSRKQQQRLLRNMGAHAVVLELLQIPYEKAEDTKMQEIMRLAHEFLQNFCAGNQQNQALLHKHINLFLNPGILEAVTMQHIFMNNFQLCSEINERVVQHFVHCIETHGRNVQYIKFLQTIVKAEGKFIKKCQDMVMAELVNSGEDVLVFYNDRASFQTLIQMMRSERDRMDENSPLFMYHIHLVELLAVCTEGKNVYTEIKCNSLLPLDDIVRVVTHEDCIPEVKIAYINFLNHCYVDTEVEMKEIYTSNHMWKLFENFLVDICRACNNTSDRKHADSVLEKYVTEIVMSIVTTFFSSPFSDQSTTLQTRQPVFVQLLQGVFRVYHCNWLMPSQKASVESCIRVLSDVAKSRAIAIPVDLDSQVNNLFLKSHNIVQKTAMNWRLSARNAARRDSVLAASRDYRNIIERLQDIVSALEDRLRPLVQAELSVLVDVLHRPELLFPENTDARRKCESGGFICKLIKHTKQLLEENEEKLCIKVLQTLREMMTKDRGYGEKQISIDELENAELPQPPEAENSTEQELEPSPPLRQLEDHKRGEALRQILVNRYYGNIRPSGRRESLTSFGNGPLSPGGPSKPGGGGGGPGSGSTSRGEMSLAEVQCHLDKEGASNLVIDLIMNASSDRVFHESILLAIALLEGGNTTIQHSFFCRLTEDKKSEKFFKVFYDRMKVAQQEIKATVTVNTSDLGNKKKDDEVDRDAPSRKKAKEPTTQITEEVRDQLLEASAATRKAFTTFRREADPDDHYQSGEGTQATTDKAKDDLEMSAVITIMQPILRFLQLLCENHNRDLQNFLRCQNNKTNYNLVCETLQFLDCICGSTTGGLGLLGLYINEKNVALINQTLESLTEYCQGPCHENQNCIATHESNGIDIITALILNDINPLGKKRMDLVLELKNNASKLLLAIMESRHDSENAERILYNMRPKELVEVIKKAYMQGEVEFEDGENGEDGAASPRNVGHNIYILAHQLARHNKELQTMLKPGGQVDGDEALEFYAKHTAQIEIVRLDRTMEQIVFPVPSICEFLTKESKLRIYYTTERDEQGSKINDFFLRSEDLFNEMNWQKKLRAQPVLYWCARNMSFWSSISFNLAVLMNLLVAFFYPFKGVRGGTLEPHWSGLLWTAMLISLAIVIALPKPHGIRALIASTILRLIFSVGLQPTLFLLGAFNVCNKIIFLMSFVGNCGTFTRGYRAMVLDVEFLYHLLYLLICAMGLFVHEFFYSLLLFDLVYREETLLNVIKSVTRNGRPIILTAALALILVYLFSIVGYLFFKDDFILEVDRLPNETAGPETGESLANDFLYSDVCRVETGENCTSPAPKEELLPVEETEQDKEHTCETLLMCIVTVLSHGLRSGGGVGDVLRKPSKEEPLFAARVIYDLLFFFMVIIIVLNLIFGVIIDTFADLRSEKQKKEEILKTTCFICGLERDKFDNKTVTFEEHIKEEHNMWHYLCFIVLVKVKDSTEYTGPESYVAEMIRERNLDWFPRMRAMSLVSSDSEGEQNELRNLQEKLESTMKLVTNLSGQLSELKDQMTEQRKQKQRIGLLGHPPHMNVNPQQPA
T2 sequence (P29994 1-604): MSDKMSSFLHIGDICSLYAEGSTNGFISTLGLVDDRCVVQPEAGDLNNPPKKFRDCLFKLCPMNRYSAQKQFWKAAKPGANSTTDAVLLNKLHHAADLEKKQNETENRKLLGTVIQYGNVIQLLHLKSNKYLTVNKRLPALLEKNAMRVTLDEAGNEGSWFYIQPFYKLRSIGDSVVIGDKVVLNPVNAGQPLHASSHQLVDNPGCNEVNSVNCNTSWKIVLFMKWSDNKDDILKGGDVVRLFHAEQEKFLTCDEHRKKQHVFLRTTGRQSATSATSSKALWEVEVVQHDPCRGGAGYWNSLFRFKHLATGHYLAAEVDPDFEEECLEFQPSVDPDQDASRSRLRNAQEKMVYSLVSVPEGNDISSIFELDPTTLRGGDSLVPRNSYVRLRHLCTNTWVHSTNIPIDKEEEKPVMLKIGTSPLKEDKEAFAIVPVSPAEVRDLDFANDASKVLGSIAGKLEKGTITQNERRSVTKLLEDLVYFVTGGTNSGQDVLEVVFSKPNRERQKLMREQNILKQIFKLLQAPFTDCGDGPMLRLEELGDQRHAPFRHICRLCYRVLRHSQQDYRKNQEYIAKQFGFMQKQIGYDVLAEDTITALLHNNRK
T1 sequence (P29994 224-604): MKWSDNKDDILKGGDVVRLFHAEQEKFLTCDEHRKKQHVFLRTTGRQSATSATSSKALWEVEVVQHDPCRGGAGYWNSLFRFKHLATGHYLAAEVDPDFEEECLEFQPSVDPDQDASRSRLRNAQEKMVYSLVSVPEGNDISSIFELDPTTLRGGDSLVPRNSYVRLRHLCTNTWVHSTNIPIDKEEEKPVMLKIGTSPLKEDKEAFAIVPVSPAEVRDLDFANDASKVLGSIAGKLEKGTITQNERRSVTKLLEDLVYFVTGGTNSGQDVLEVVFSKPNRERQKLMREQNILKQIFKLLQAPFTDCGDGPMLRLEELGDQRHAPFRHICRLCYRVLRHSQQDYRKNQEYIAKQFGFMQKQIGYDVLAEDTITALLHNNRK

O=C(NCCCN(CCCCN(CCCNC(=O)OCc1ccccc1)C(=O)OCc1ccccc1)C(=O)OCc1ccccc1)NCCO[C@@H]1[C@H](O)[C@@H](OP(=O)(O)O)[C@H](OP(=O)(O)O)[C@@H](O)[C@@H]1OP(=O)(O)O [Compound 2, 2-O-(1,5,10-tris(benzyloxycarbonyl)-15-oxo-1,5,10,14,16-pentaazaoctadecan-18-yl)-1D-myo-inositol 1,4,5-trisphosphate]
Kd [1]: 0.44 nM | Kd [2]: 2.32 nM | Hill coefficient (h) of binding ([3]; cerebellar membranes, CLM at 20°C): 2.0 ± 0.7 | Kd ([3]; cerebellar membranes, CLM, conditions that mimic functional assays): 549 nM | KD relative to KD for IP3 (fold lower) ([3]; conditions that mimic functional assays): 1.5 fold | ECI50/KD ratio relative to IP3 (fold greater) (IP3R1 (DT40-IP3R1 cells)): 41 fold | Ca2+ release evoked by 2 (%) (IP3R1 (DT40-IP3R1 cells); 2 at 1 µM, 30 s, permeabilized DT40-IP3R1 cells): 31% ± 7% and 31 ± 7% | Ca2+ stores released by a maximal concentration (IP3R1 (DT40-IP3R1 cells); 2 at 30 μM, determined at 150 s, permeabilized DT40-IP3R1 cells): 52% ± 3% | Kd (IP3R1 (DT40-IP3R1 cells); DT40-IP3R1 cells, read-out: KD derived from functional assays): ~450 nM | pKD-pECI50 (IP3R1 (DT40-IP3R1 cells); KD for IP3R1 in TEM, ECI50 in DT40-IP3R1 cells, mean ± SEM): 2.15 ± 0.15 | Kb (IP3R1 (DT40-IP3R1 cells); functional analysis, IP3-evoked Ca2+ release ± 2 (1 µM), DT40-IP3R1 cells, read-out: KD determined from dose-ratio analysis, KD = [2]/(DR-1)): 426 nM | Ca2+ release, Release (maximal) (IP3R1 (DT40-IP3R1 cells); permeabilized DT40-IP3R1 cells, determined after 20 s, mean ± SEM): 51.9 ± 0.7% | EC50 (IP3R1 (DT40-IP3R1 cells); permeabilized DT40-IP3R1 cells, determined after 20 s, read-out: Ca2+ release, EC50): 479 nM | decrease in τo relative to IP3 (fold) (IP3R1): ~2 fold | maximal NPo relative to IP3 (fold less) (IP3R1): 40 fold | τo, mean channel open time (IP3R1; 10 µM ligand): 4.4 ± 0.20 ms | NPo (channel activity) (IP3R1; 10 µM ligand in pipette, +40 mV, K+ charge carrier, mean ± SEM): 0.012 ± 0.003 | γK, single-channel K+ conductance (IP3R1; 10 µM ligand, from current-voltage relationships): 217 ± 4 pS | Ca2+ release (%) ([4]; maximal): 51 ± 7% | pEC50 ([4]; mean ± SEM): 6.09 ± 0.22

NCCOB(c1ccccc1)c1ccccc1 [Compound 2-APB, 2-aminoethoxydiphenyl borate]
block of IP3-evoked Ca2+ release (IP3R1 (HEK-IP3R1 cells)): partially

Cc1cc(N)c2ccccc2[n+]1CCCCCCCCCC[n+]1c(C)cc(N)c2ccccc21 [dequalinium, Dequalinium chloride hydrate]
block of IP3-evoked Ca2+ release (IP3R1 (HEK-IP3R1 cells)): completely | effect on specific [3H]IP3 binding ([3]; dequalinium 50 μM, [3H]IP3 7.5 nM, cerebellar membranes in CLM at 20°C): No significant difference
